From US9511091B2, “Rare earth metal compounds, methods of making, and methods of using the same” (Spectrum Pharmaceuticals, Inc., priority 2002, dated 2016)

Legend:
[1] = binding efficiency test, spiked water; settings: 0.50 g in 30.0 ml spike solution, approximately 1 mg/l of each element, 18 hrs, room temperature
Description: Tests were run to determine the binding efficiency of eight different compounds for twenty-four different elements.
The main objective of the tests was to investigate the efficiency at which the compounds bind arsenic and selenium, in view of their use in removing those elements from drinking water. Twenty-one different anions were also included to explore further possibilities. The tests were performed as follows:
The compounds given in Table 6 were added to water and a spike and were vigorously shaken at room temperature for 18 hrs. The samples were filtered and the filtrate analyzed for a suite of elements including Sb, As, Be, Cd, Ca, Cr, Co, Cu, Fe, Pb, Mg, Mn, Mo, Ni, Se, Tl, Ti, V, Zn, Al, Ba, B, Ag, and P.
2. Add standard solutions of the elements given above to make solutions containing approximately 1 mg/l of each element.
1. Weigh 0.50 g of each compound into its own 50 ml centrifuge tube.
2. Add 30.0 ml of the spike solution to each.
3. Cap tightly and shake vigorously for 18 hrs.
4. Filter solution from each centrifuge tube through 0.2 µm syringe filter. Obtain about 6 ml of filtrate.
5. Dilute filtrates 5:10 with 2% HNO3. Final Matrix is 1% HNO3.

[2] = specific surface area by the BET method; assay type: physicochemical
Description: For each sample, the surface area measured by the BET method and the fraction of phosphate remaining after 10 min of reaction have been tabulated. […] The rate constant k1 is defined by the following equation: d[PO4]/dt=−k1[PO4]
An aqueous HCl solution having a volume of 334.75 ml and containing LaCl3 (lanthanum chloride) at a concentration of 29.2 wt % as La2O3 was added to a 4 liter beaker and heated to 80° C. with stirring. The initial pH of the LaCl3 solution was 2.2. Two hundred and sixty five ml of an aqueous solution containing 63.59 g of sodium carbonate (Na2CO3) was metered into the heated beaker using a small pump at a steady flow rate for 2 hours. Using a Buchner filtering apparatus fitted with filter paper the filtrate was separated from the white powder product. The filter cake was mixed four times, each with 2 liters of distilled water and filtered to wash away the NaCl formed during the reaction. The washed filter cake was placed into a convection oven set at 105° C. for 2 hours or until a stable weight was observed. […] The surface area of the product was determined by the BET method. The test was repeated 3 times and slightly different surface areas and different reaction rates were obtained as shown in Table 1.

[3] = reactivity with respect to phosphate: phosphate removal from pH 3 Na2HPO4/HCl stock solution; assay type: binding; settings: for Initial 1st order rate constant k1: calculated from the experimental points for the first minute of the reaction, pH 3; for Fraction of PO4 remaining after 10 min: pH 3 stock solution, La 3 times the stoichiometric amount; for rate of removal of phosphate compared with LaOCl of Example 1: FIG. 14, pH 3
Description: A desirable lanthanum carbonate hydroxide is LaCO3OH. […] To determine the reactivity of the lanthanum carbonate hydroxide compound with respect to phosphate, the following procedure was used. A stock solution containing 13.75 g/l of anhydrous Na2HPO4 and 8.5 g/l of HCl is prepared. The stock solution is adjusted to pH 3 by the addition of concentrated HCl. 100 ml of the stock solution is placed in a beaker with a stirring bar. A sample of lanthanum carbonate hydroxide powder is added to the solution. The amount of lanthanum carbonate hydroxide powder is such that the amount of La in suspension is 3 times the stoichiometric amount needed to react completely with the phosphate. Samples of the suspension are taken at intervals, through a filter that separated all solids from the liquid. The liquid sample is analyzed for phosphorous.
(§1) To determine the reactivity of the lanthanum compound with respect to phosphate, the following test was conducted. A stock solution containing 13.75 g/l of anhydrous Na2HPO4 and 8.5 g/l of HCl was prepared. The stock solution was adjusted to pH 3 by the addition of concentrated HCl. An amount of 100 ml of the stock solution was placed in a beaker with a stirring bar. The lanthanum oxychloride from above was added to the solution to form a suspension. The amount of lanthanum oxychloride was such that the amount of La in suspension was 3 times the stoichiometric amount needed to react completely with the phosphate. Samples of the suspension were taken at time intervals, through a filter that separated all solids from the liquid. The liquid sample was analyzed for phosphorous.
as §1, with “Lanthanum carbonate hydroxide powder made as described” for “The lanthanum oxychloride from”, “solution.” for “solution to form a suspension.”, “carbonate hydroxide powder” for “oxychloride”, “intervals” for “intervals,”
(§2) To determine the reactivity of this lanthanum compound with respect to phosphate, the following test was conducted. A stock solution containing 13.75 g/l of anhydrous Na2HPO4 and 8.5 g/l of HCl was prepared. The stock solution was adjusted to pH 3 by the addition of concentrated HCl. An amount of 100 ml of the stock solution was placed in a beaker with a stirring bar. Anhydrous lanthanum oxycarbonate made as described above, was added to the solution. The amount of anhydrous lanthanum oxycarbonate was such that the amount of La in suspension was 3 times the stoichiometric amount needed to react completely with the phosphate. Samples of the suspension were taken at intervals, through a filter that separated all solids from the liquid. The liquid sample was analyzed for phosphorous.
as §2, with “reactivity of the lanthanum compound” for “reactivity of this lanthanum compound”, “stirring bar. La2CO5 powder, made as” for “stirring bar. Anhydrous lanthanum oxycarbonate made as”, “amount of lanthanum oxycarbonate” for “amount of anhydrous lanthanum oxycarbonate”, “taken at intervals through a” for “taken at intervals, through a”

[4] = after 10 min, pH 3, La 3 times the stoichiometric amount

Row | % Analyte Removed As [1] [%] | % Analyte Removed Be [1] [%] | % Analyte Removed Ca [1] [%] | % Analyte Removed Cd [1] [%] | % Analyte Removed Co [1] [%] | % Analyte Removed Cr [1] [%] | % Analyte Removed Cu [1] [%] | % Analyte Removed Fe [1] [%] | % Analyte Removed Mg [1] [%] | % Analyte Removed Mn [1] [%] | % Analyte Removed Pb [1] [%] | % Analyte Removed Sb [1] [%] | Compound | BET surface area [2] [m^2/g] | Initial 1st order rate constant k1 [3] [min⁻¹] | Fraction of PO4 remaining after 10 min [3] | also measured
1 | 85 | 97 | 21 | 95 | 69 | 100 | 89 | 92 | 0 | 94 | 92 | 89 | [La+3].[La+3].[O-2].[O-2].[O-2] [La2O3] | – | – | – | –
2 | – | – | – | – | – | – | – | – | – | – | – | – | O=C([O-])[O-].[La+3].[OH-] [Sample 2, LaCO3OH] | 35.9 | 0.929 | 0.153 | –
3 | 76 | 89 | 0 | 46 | 28 | 100 | 88 | 100 | 0 | 28 | 99 | 86 | [O]=[La][Cl] [LaOCl, lanthanum oxychloride] | – | – | – | relationship between the amount of phosphate bound or absorbed and time ([3]; compared with commercial hydrated lanthanum carbonates): closer to linear
4 | 93 | 8 | 0 | 4 | 0 | 6 | 11 | 49 | 0 | 1 | 97 | 96 | [O]=[Ti]=[O] [TiO2] | – | – | – | % Analyte Removed As ([1]; listed as compound 6): most efficient
5 | – | – | – | – | – | – | – | – | – | – | – | – | O=C([O-])[O-].[La+3].[La+3].[O-2].[O-2] [Sample 8, La2CO5] | 11.9 | 0.434 | 0.483 | –
6 | – | – | – | – | – | – | – | – | – | – | – | – | O=C([O-])[O-].[La+3].[La+3].[O-2].[O-2] [Sample 6, La2CO5] | 18.8 | 0.391 | 0.308 | –
7 | – | – | – | – | – | – | – | – | – | – | – | – | O.O=C([O-])[O-].O=C([O-])[O-].O=C([O-])[O-].[La+3].[La+3] [Sample 10, La2(CO3)3•1H2O, reference compound] | 2.9 | 0.094 | 0.790 | rate of removal of phosphate compared with LaOCl of Example 1 [3]: faster at the beginning but slower after about 3 minutes
8 | – | – | – | – | – | – | – | – | – | – | – | – | O=C([O-])[O-].[La+3].[OH-] [Sample 1, LaCO3OH] | 41.3 | 0.949 | 0.130 | –
9 | – | – | – | – | – | – | – | – | – | – | – | – | O=C([O-])[O-].[La+3].[La+3].[O-2].[O-2] [Sample 4, La2CO5] | 25.6 | 0.545 | 0.275 | –
10 | – | – | – | – | – | – | – | – | – | – | – | – | O=C([O-])[O-].[La+3].[OH-] [Sample 3, LaCO3OH] | 38.8 | 0.837 | 0.171 | –
11 | – | – | – | – | – | – | – | – | – | – | – | – | O=C([O-])[O-].[La+3].[La+3].[O-2].[O-2] [Sample 5, La2O2CO3] | 18 | 0.483 | 0.278 | –
12 | – | – | – | – | – | – | – | – | – | – | – | – | O=C([O-])[O-].[La+3].[La+3].[O-2].[O-2] [Sample 7, La2O2CO3] | 16.5 | 0.36 | 0.327 | –

Row | Compound | % Analyte Removed As [1] [%] | % Analyte Removed Be [1] [%] | % Analyte Removed Ca [1] [%] | % Analyte Removed Cd [1] [%] | % Analyte Removed Co [1] [%] | % Analyte Removed Cr [1] [%] | % Analyte Removed Cu [1] [%] | % Analyte Removed Fe [1] [%] | % Analyte Removed Mg [1] [%] | % Analyte Removed Mn [1] [%] | % Analyte Removed Pb [1] [%] | % Analyte Removed Sb [1] [%] | BET surface area [2] [m^2/g] | Initial 1st order rate constant k1 [3] [min⁻¹] | Fraction of PO4 remaining after 10 min [3] | also measured
13 | O.O.O.O.O=C([O-])[O-].O=C([O-])[O-].O=C([O-])[O-].[La+3].[La+3] [La2(CO3)3•4H2O, reference compound] | 25 | 41 | 28 | 37 | 20 | 94 | 0 | 56 | 0 | 20 | 90 | 84 | – | – | – | % Analyte Removed As ([1]; listed as Commercial lanthanum carbonate): less effective; rate of removal of phosphate compared with LaOCl of Example 1 [3]: faster at the beginning but slower after about 3 minutes; capacity of phosphate removal (PO4 removed/g of La compound) [3, 4]: 45 mg PO4/g; phosphate in solution removed [3, 4]: 38%
14 | O=C([O-])[O-].O=C([O-])[O-].[Ti+4] [Ti(CO3)2, Ti carbonate] | 93 | 100 | 99 | 100 | 99 | 99 | 98 | 100 | 79 | 100 | 98 | 96 | – | – | – | % Analyte Removed As ([1]; listed as compound 5): most efficient
